Consider four molecules from paper PMC8844822, “SARM1 is a multi-functional NAD(P)ase with prominent base exchange activity, all regulated bymultiple physiologically relevant NAD metabolites” (iScience, 2022).

The structures appear in SMILES notation.

Common to all, as to assay type: biochemical
The target of assay [1] is T1, hSARM1 full length (Homo sapiens, UniProt Q6SZW1).
T1 construct: Human recombinant SARM1 full length proteins (wild-type and E642A mutant); made in house
T1 sequence (Q6SZW1 28-724): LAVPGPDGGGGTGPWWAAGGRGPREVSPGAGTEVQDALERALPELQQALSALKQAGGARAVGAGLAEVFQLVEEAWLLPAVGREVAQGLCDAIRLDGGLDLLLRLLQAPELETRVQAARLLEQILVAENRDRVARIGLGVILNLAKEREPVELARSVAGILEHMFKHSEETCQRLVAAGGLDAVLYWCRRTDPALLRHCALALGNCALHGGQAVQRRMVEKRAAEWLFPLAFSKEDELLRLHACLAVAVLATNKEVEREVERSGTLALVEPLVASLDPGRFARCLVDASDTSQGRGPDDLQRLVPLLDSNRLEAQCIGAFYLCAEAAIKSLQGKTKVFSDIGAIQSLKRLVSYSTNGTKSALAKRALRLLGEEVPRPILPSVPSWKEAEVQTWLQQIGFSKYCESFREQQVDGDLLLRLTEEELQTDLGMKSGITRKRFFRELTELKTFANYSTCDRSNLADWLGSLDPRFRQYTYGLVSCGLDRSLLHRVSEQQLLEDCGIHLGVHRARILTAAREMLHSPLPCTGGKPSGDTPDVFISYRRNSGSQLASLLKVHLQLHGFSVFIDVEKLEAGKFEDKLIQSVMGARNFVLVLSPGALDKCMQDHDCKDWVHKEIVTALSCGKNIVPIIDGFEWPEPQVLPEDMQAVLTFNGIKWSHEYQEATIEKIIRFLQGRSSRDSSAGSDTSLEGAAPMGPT
Put plainly: NADase inhibition by pyridine ribosides (HPLC). The settings on record: for NADase inhibition (in words): hSARM1, riboside fixed at 200 μM, NAD […]; for IC50: hSARM1 full length, saturating NAD ([…]), preliminary. As to the method: (§1) hSARM1 species were routinely assayed by the NAD/NADH-Glo^TM Assay (Promega) while both Aplysia cyclase and CD38 were assayed by fluorometry using ϵNAD ([Orsomando et al., 2000]). […] Other reagents used in addition to, or in place of those above are detailed in text or in figure legends, for example metal ions, free bases, dinucleotide analogues, mononucleotides, and ribosides. Assays were all carried out at 25°C except for temperature studies. Reactions were stopped by HClO4/K2CO3 and analysed by C18-HPLC as reported ([Mori et al., 2014]). Only the acid labile NADH and NADPH were treated with 1 N NaOH and neutralized using 1:1 vol of 1.73 M KH2CO3 while the highly hydrophobic metabolites vacor, VAD, VMN and VR, were analysed by a modified C18-HPLC method ([Buonvicino et al., 2018]). Reaction products were quantified from peak areas (see Figure 2A) based on coelution with standards (except for cyclic products from NAD analogues that were not available and were attributed based on UV-spectra and retention times as predicted). Rates were calculated as follows. Hydrolysis and cyclization were measured from product generation from the respective individual dinucleotide substrate used, e.g., free and cyclic ADP-ribosyl moieties from NAD (Figure 1B). A basal value for hydrolysis/cyclization was taken as sum of these latter two products. In addition to that value, base exchange or transglycosidation was calculated from the expected dinucleotide analog formed in the presence of the corresponding free base, e.g., AcPyrAD from AcPyr and NAD. The measured level of overall formed products matched in all cases the dinucleotide substrate consumed and the corresponding pyridine base released, according to the reaction scheme (Figure 1B). Furthermore, enzyme amounts forming 1 μmol/min of overall products above were referred to as single units (U) of activity and initial rates were always considered, for example until a maximum of 20% of the original substrate had been consumed and all products were still accumulating at a nearly linear rate.
(§2) Inhibition by ribosides was assayed by HPLC initially at fixed 200 μM of each NR, NaR or VR and optimized NAD concentrations for the different enzymes (see Figure 6 legend).

The target in assay [2] is T2, Aplysia californica ADP ribosyl cyclase (Aplysia californica, UniProt P29241).
T2 sequence (P29241 25-282): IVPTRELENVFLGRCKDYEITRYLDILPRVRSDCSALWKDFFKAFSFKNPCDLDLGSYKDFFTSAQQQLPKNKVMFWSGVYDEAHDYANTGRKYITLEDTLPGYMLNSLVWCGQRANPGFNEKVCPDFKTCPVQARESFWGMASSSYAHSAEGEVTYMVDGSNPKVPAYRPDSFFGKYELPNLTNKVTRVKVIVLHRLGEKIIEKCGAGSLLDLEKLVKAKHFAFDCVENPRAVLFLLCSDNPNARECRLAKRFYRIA
Put plainly: Base exchange reactions at neutral pH (HPLC). Also on record: purchased Merck A8950. The method, then:
(§3) Multiple time stops from individual assays as above were analyzed for linearity, then extents of hydrolysis (white bars), cyclization (red bars), or base exchange (black bars) were calculated from each corresponding product as shown in Figure 1B and STAR methods. […] See also Figures S3–S5, and Table S1
(§4) Rates were calculated as follows.

The target of assay [3] is T1, hSARM1 full length. As to the kind of experiment: Base exchange reactions at neutral pH (HPLC). The method, then: as §3
as §1, with “NAD.” for “NAD. The measured level of overall formed products matched in all cases the dinucleotide substrate consumed and the corresponding pyridine base released, according to the reaction scheme (Figure 1B). Furthermore, enzyme amounts forming 1 μmol/min of overall products above were referred to as single units (U) of activity and initial rates were always considered, for example until a maximum of 20% of the original substrate had been consumed and all products were still accumulating at a nearly linear rate.”

The target of a further assay is T3, hCD38 (Homo sapiens, UniProt P28907).
T3 construct: a soluble fragment Val43-Ile300 with 6x-His tag at C terminus; 6xHis (C); purchased R&D Systems
T3 sequence (P28907 43-300): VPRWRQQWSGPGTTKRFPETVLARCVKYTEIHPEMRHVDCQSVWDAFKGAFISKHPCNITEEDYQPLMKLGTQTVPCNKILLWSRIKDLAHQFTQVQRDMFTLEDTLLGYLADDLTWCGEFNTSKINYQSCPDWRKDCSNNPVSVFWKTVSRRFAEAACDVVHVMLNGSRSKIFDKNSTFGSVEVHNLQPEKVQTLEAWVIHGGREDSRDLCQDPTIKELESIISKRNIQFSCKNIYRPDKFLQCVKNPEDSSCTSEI
As to the kind of experiment: Base exchange reactions at neutral pH (HPLC). As to the method: as §3
as §1, with “NAD.” for “NAD. The measured level of overall formed products matched in all cases the dinucleotide substrate consumed and the corresponding pyridine base released, according to the reaction scheme (Figure 1B). Furthermore, enzyme amounts forming 1 μmol/min of overall products above were referred to as single units (U) of activity and initial rates were always considered, for example until a maximum of 20% of the original substrate had been consumed and all products were still accumulating at a nearly linear rate.”

In assay [4] the target is T4, hSARM1 SAM-TIR (Homo sapiens, UniProt Q6SZW1).
T4 construct: made in house
T4 sequence (Q6SZW1 409-724): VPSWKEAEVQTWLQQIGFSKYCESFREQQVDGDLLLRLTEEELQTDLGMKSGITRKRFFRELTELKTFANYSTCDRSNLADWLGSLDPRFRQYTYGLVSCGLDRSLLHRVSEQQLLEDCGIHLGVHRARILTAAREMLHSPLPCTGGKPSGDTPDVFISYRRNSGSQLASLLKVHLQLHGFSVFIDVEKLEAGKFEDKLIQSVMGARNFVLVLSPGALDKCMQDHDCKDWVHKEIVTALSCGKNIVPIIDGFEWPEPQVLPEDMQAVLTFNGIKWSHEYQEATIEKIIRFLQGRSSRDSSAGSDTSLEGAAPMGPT
Put plainly: Base exchange reactions at neutral pH (HPLC). As to the method: as §3, §4

Assay [5] concerns the target T4, hSARM1 SAM-TIR. As to the kind of experiment: NADase inhibition by pyridine ribosides, IC50 and inhibition kinetics (HPLC). The settings on record: for IC50: NAD […], preliminary; for Ki: variable NAD 15-600 μM. As to the method: as §1, with “NAD.” for “NAD. The measured level of overall formed products matched in all cases the dinucleotide substrate consumed and the corresponding pyridine base released, according to the reaction scheme (Figure 1B). Furthermore, enzyme amounts forming 1 μmol/min of overall products above were referred to as single units (U) of activity and initial rates were always considered, for example until a maximum of 20% of the original substrate had been consumed and all products were still accumulating at a nearly linear rate.”
as §2

[6] abbreviates: NAD […] alone or + AcPyr 2 mM / Vacor 0.5 mM / Na 2 mM.
Setting [7] is: NADP […] alone or + AcPyr 2 mM / Vacor 0.5 mM / Na 2 mM.
The mark [8] stands for this setting: hSARM1 full length +NMN 0.2 mM, NAD […].
Where [9] appears, read: hSARM1 full length +NMN 0.2 mM, NADP […].
Setting [10] is: hSARM1 full length +VMN 0.05 mM, NAD […].
[11] abbreviates: hSARM1 full length +VMN 0.05 mM, NADP […].

As to `NC(=O)c1ccc[n+]([C@@H]2O[C@H](CO)[C@@H](O)[C@H]2O)c1` [NR, nicotinamide riboside], the “NADase inhibition (in words)” value at hSARM1 full length [1] was “inactive”.
As to `O=C(O)c1cccnc1` [Na, nicotinic acid], the rate in assay [2] (setting [6]) is 14595 ±3147 mU/mg; in assay [2] (setting [7]), 9872 ±1846 mU/mg; on hSARM1 full length [3] (hSARM1 full length +NMN 0.2 mM, NAD […] alone or + free base), 201.5 ±27.9 mU/mg; on hSARM1 full length [3] (hSARM1 full length +NMN 0.2 mM, NADP […] alone or + free base), 131.9 ±10.5 mU/mg; at hSARM1 full length [3] (hSARM1 full length +VMN 0.05 mM, NAD […] alone or + free base), 199.0 ±17.6 mU/mg; at hSARM1 full length [3] (hSARM1 full length +VMN 0.05 mM, NADP […] alone or + free base), 147.6 ±4.76 mU/mg. Besides, the rate at hSARM1 full length [3] (hSARM1 full length, no trigger, NAD […] alone or + AcPyr 2 mM / Vacor 0.5 mM / Na 2 mM, pH 7.5) is 23.3 ±0.83 mU/mg; on hSARM1 full length [3] (hSARM1 full length, no trigger, NADP […] alone or + AcPyr 2 mM / Vacor 0.5 mM / Na 2 mM, pH 7.5) it was 17.3 ±0.54 mU/mg; on hCD38 (setting [6]), 7934 ±1182 mU/mg; on hCD38 (setting [7]) it was 3189 ±622 mU/mg; at hSARM1 SAM-TIR [4] (setting [6]), 315.2 ±69.6 mU/mg; on hSARM1 SAM-TIR [4] (setting [7]) it was 242.0 ±37.3 mU/mg. In addition, the “base exchange, share of products” value came to 1.58% at hSARM1 full length [3] (setting [8]), 1.48% on hSARM1 full length [3] (setting [9]), 1.68% at hSARM1 full length [3] (setting [10]) and 1.28% on hSARM1 full length [3] (setting [11]). For the same molecule, the “cyclization, share of products” value at hSARM1 full length [3] (setting [8]) is on record as 8.35%; at hSARM1 full length [3] (setting [9]) it was ~ 0.05%; at hSARM1 full length [3] (setting [10]), 6.44%; on hSARM1 full length [3] (setting [11]), 0.69%. For the same molecule, the “hydrolysis, share of products” value is 90.07% on hSARM1 full length [3] (setting [8]), 98.47% at hSARM1 full length [3] (setting [9]), 91.88% on hSARM1 full length [3] (setting [10]) and 98.03% at hSARM1 full length [3] (setting [11]). In addition, the “rate (relative fold)” value on hSARM1 full length [3] (hSARM1 full length +NMN 0.2 mM, NAD […], relative to NAD alone without trigger) is on record as 9.23 ±1.28 fold; on hSARM1 full length [3] (hSARM1 full length +NMN 0.2 mM, NADP […], relative to NADP alone without trigger), 8.98 ±0.711 fold; on hSARM1 full length [3] (hSARM1 full length +VMN 0.05 mM, NAD […], relative to NAD alone without trigger) it was 9.12 ±0.805 fold; on hSARM1 full length [3] (hSARM1 full length +VMN 0.05 mM, NADP […], relative to NADP alone without trigger), 10.04 ±0.324 fold. The “base exchange products VAD(P) or NaAD(P), share of total products” value on hSARM1 full length [3] (hSARM1 full length, NAD or NADP 250 μM, vacor 0.5 mM, Na 2 mM) is reported as 2%–3%.
The molecule `O=C([O-])c1ccc[n+]([C@@H]2O[C@H](CO)[C@@H](O)[C@H]2O)c1` [NaR, nicotinic acid riboside] returned an IC50 on hSARM1 full length [1] of 87 µM. In addition, on hSARM1 SAM-TIR [5], the inhibition type result is “mixed-type inhibition”, the IC50 is 36 µM and the Ki is 15 µM.
In the case of `O=C(NCc1ccc[n+]([C@@H]2O[C@H](CO)[C@@H](O)[C@H]2O)c1)Nc1ccc([N+](=O)[O-])cc1` [VR, vacor riboside], on hSARM1 full length [1], the “NADase inhibition (in words)” value is on record as “strongly inhibited” and the half-maximal inhibitory concentration (IC50) came to 154 µM. At hSARM1 SAM-TIR [5], the inhibition type result is on record as “mixed-type inhibition”; the midpoint of inhibition, the IC50, lay at 61 µM; the affinity corresponds to a Ki of 25.9 µM.

Usually IC50 stands for the concentration that inhibits the measured activity by half. Read a high IC50 as weaker potency in that assay. As a reminder, the Ki is a dissociation constant, usually derived from enzyme kinetics or from competition with a known ligand. Lower therefore signals tighter binding.
